Assay results reported in US8084431B2, “Method for inhibiting activation of macrophages, inhibiting formation of osteoclasts, inhibiting function of osteoclasts, and/or activating osteoblasts” (China Medical University, priority 2008, dated 2011).
Like-named read-outs stand apart in the source and are kept apart here.

Legend:
[1] = tested on: ovariectomized ICR mice; experiment: Osteoporosis of ovariectomized ICR mice; type: in vivo; details: for bone volume/tissue volume / the number of trabecula: femur, micro computed tomography; for bone volume/tissue volume / the number of trabecula / CTx / osteocalcin: 3 weeks; for CTx / osteocalcin: serum
Method: First, the ovaries of ICR mice were removed. After 3 days, the ICR mice were administrated with various dosages (0, 100, and 300 mg/kg) of kinsenoside, respectively. Herein, the unit “mg/kg” means that the dosage (mg) required for each kilogram of the body weight of an animal. After 3 weeks, the ICR mice were sacrificed. ELISA was used to determine the content of osteocalcin and C-terminal cross-lined telopeptides of type I collagen (CTx) in serum. The reagents for determining osteocalcin and CTx were purchased from IDS Nordic A/S, Herlev, Danmarkids. The femurs of the sacrificed ICR mice were taken, and were photographed by a micro computed tomography (SkyScan 1076, Kontizh, Belgium). The computerized axial tomography is shown in FIG. 10, and the ratio of bone volume to tissue volume and the number of trabecula were analyzed with analysis software. Then, the femurs were decalcified and were frozen sectioned. Osteoclasts in the femurs were stained with a TRAP stain reagent.

[2] = tested on: myelocytes of rats; experiment: Formation of osteoclasts from rat myelocytes (RANKL + M-CSF, TRAP stain); type: cell-based, Wistar rats; details: for inhibition at 5 µM / inhibition at 25 µM / inhibition at 50 µM / inhibition at 100 µM: Rattus norvegicus, Osteoclast, 216 h, 9 days
Method: Myelocytes were first prepared. Male Wistar rats with the body weight of 250 g to 300 g were used to prepare myelocytes. Under the condition of anaesthesia, the femurs of the rats were taken, and myelocytes were washed out with a phosphate buffer solution. […] After incubation for 9 days, monocytes in the marrow differentiated into osteoclasts. The osteoclasts were stained with a TRAP (tartrate-resistant acid phosphatase) stain reagent (Sigma, Louis, Mo., USA), and the number of the osteoclasts was calculated. Besides the same RANKL and M-CSF as the control group, various concentrations (0, 5, 25, 50, and 100 μM) of kinsenoside or 10 nM of estradiol (Wako, Japan) were added into culture plates, respectively. Then, rat myelocytes were incubated for 9 days, and the situation that the myelocytes differentiated into osteoclasts was observed. The percentage of the inhibition effect of kinsenoside and estradiol on the formation of osteoclasts was calculated with the following formula, and the result is shown in Table 9. Inhibition percentage (%)=(the number of osteoclasts of the control group−the number of osteoclasts of the experimental group)/the number of osteoclasts of the control group×100% In addition to the aforesaid RANKL, kinsenoside, and/or estradiol, the inhibitor of estradiol, Fulvestrant (Sigma, Louis, Mo., USA) (1 nM), was also added into culture plates. Then, rat myelocytes were incubated for 9 days, and the situation that the myelocytes differentiated into osteoclasts was observed. The percentage of the inhibition effect of kinsenoside on the formation of osteoclasts was calculated, and the result is shown in Table 9.

[3] = tested on: ICR mice administrated with lipopolysaccharides; experiment: LPS-induced inflammatory cytokines in the blood of ICR mice (ELISA); type: in vivo; details: LPS 40 mg/kg, 1 hour
Method: ICR mice were intraperitoneally administrated with various dosages (100 mg/kg or 300 mg/kg) of kinsenoside. 30 minutes later, the ICR mice were intraperitoneally administrated with 40 mg/kg of lipopolysaccharides. 1 hour later, the blood of the ICR mice was collected from the retro-orbital sinus, and the concentrations of TNF-α and IL-1β were determined with an ELISA (enzyme linked immunosorbent assay) reagent (eBioscience, Boston, Mass.).

[4] = tested on: macrophages RAW 264.7; details: mouse, 3 days
Method: After 3 days, the survival rate of the macrophages RAW 264.7 was measured with MTS (3-(4,5-di-methylthiazol-2-yl)-5-(3-carboxymethoxyphenyl)-2-(4-sulfophenyl)-2H-tetrazolium) (Promega, Madison, Wis., USA), and the result is shown in Table 10.
The mechanism of MTS is that a live cell has the activity of dehydrogenase, so MTS can be reduced to become a red purple soluble product, and the product has the highest absorbance at the wavelength of 490 nm. Therefore, the survival rate of cells can be determined according to the absorbance, and the survival rate of cells can be calculated with the following formula: Survival rate=the absorbance of the experimental group/the absorbance of the control group×100%

[5] = tested on: macrophages in the peritoneal cavity of ICR mice; experiment: NO release of LPS-induced peritoneal macrophages (Griess reagent); type: cell-based; details: LPS 1 μg/ml, 24 hours
Method: By means of peritoneal cavity injection, ICR mice (BioLASCO, Co., Ltd., Taiwan) were administrated with 5 wt % of thioglycollate (Becton Dickinson, Franklin Lakes, N.J.). […] Then, kinsenoside (10, 25, 50 μM) was added into the culture plates, and the macrophages were incubated for 30 minutes. Lipopolysaccharides (1 μg/ml, Sigma) were added into the plates to induce the inflammatory reaction of macrophages. 24 hours later, the supernatant was collected, and the content of nitric oxide was determined with a Griess reagent (Sigma).

[6] = tested on: macrophages RAW 264.7; experiment: Formation of osteoclasts from macrophages RAW 264.7 (RANKL, TRAP stain); type: cell-based; details: Mus musculus, RAW264.7, 120 h, RANKL 50 ng/ml, 5 days, read-out: inhibition percentage
Method: If macrophages RAW 264.7 are incubated in culture plates containing 50 ng/ml of differentiation inducer, RANKL, they usually differentiate into osteoclasts after 5 days. In Experiment H, various concentrations (0, 10, and 50 μM) of kinsenoside or 10 nM of estradiol were added into culture plates containing macrophages RAW 264.7, respectively, and the macrophages RAW 264.7 were incubated for 5 days. […] The number of osteoclasts was counted, and the inhibition percentage of the formation of osteoclasts was calculated with the following formula, and the result is shown in Table 11. Inhibition percentage=(the number of osteoclasts in the control group−the number of osteoclasts in the experimental group)/the number of osteoclasts in the control group×100%

[7] = tested on: MC3T3-E1 cells; experiment: Survival rate of osteoblast precursor cells MC3T3-E1 (MTS); type: cell-based; details: 3 days; for survival rate Experimental Group VI: with Vitamin C and β-glycerophosphatase; for survival rate Experimental Group V: without differentiation inducers
Method: MC3T3-E1 cells (American Type Culture Collection, Manassas, Va., USA) are the precursor cells of osteoblasts. A suitable differentiation inducer can be added into culture plates containing MC3T3-E1 cells to observe the later stage of the differentiation process of osteoblasts.
Besides various concentrations of kinsenoside as the above experiment, […] MC3T3-E1 cells, and the MC3T3-E1 cells were incubated for 3 days.

[8] = with Fulvestrant 1 nM, read-out: inhibition percentage Experimental Group II
[9] = without Fulvestrant, read-out: inhibition percentage Experimental Group I
[10] = kinsenoside 100 mg/kg intraperitoneal
[11] = kinsenoside 300 mg/kg intraperitoneal

O=C1C[C@@H](OC2OC(CO)C(O)C(O)C2O)CO1 (stereo partly drawn) [kinsenoside, 3-(R)-3-β-D-glucopyranosyloxy-butanolide]
bone tissues of the femurs in micro computed tomography ([1]; compared to ICR mice that are not ovariectomized, FIG. 10): return to a normal state | bone volume/tissue volume ([1]; kinsenoside 100 mg/kg): 19.9 ± 1.5 % | the number of trabecula ([1]; kinsenoside 100 mg/kg): 12.2 ± 1.5 cm⁻¹ | bone volume/tissue volume ([1]; kinsenoside 300 mg/kg): 21.2 ± 2.2 % | the number of trabecula ([1]; kinsenoside 300 mg/kg): 12.8 ± 1.5 cm⁻¹ | CTx ([1]; kinsenoside 100 mg/kg): 29.7 ± 6.9 ng/mL | osteocalcin ([1]; kinsenoside 100 mg/kg): 191.2 ± 33.5 ng/mL | CTx ([1]; kinsenoside 300 mg/kg): 27.5 ± 3.1 ng/mL | osteocalcin ([1]; kinsenoside 300 mg/kg): 351.8 ± 80.5 ng/mL | effect of Fulvestrant on the inhibition of osteoclast formation ([2]; Fulvestrant 1 nM, summary of Table 9): no inhibition effect | inhibition at 5 µM [2, 8]: 12 ± 7.5% | inhibition at 5 µM [2, 9]: 15.3 ± 7.2% | inhibition at 25 µM [2, 8]: 16.3 ± 6.7% | inhibition at 25 µM [2, 9]: 25 ± 2% | inhibition at 50 µM [2, 8]: 65.7 ± 3.8% | inhibition at 50 µM [2, 9]: 50.3 ± 4.2% | inhibition at 100 µM [2, 8]: 76 ± 3.6% | inhibition at 100 µM [2, 9]: 78.1 ± 2.8% | IL-1β [3, 10]: 371.1 ± 127.8 ng/mL | TNF-α [3, 10]: 680.5 ± 160.2 ng/mL | IL-1β [3, 11]: 272.6 ± 102.6 ng/mL | TNF-α [3, 11]: 513.4 ± 155.0 ng/mL | survival rate Experimental Group III ([4]; 10 μM): 117.5 ± 8.0% | survival rate Experimental Group IV ([4]; 10 μM): 100.3 ± 4.0% | survival rate Experimental Group III ([4]; 25 μM): 139.9 ± 4.9% | survival rate Experimental Group IV ([4]; 25 μM): 105.0 ± 2.4% | survival rate Experimental Group III ([4]; 50 μM): 136.9 ± 4.8% | survival rate Experimental Group IV ([4]; 50 μM): 101.0 ± 0.3% | NO concentration ([5]; kinsenoside 10 μM): 26.7 ± 3.2 µM | NO concentration ([5]; kinsenoside 25 μM): 20.2 ± 2.1 µM | NO concentration ([5]; kinsenoside 50 μM): 16.2 ± 1.0 µM | inhibition at 10 µM ([6]; 10 μM): 19 ± 9% | inhibition at 25 µM ([6]; 25 μM): 59 ± 8% | inhibition at 50 µM ([6]; 50 μM): 71 ± 3% | survival rate Experimental Group VI ([7]; 10 nM): 98.7 ± 7.8% | survival rate Experimental Group V ([7]; 10 nM): 91.5 ± 3.0 % | survival rate Experimental Group VI ([7]; 100 nM): 95.3 ± 3.3% | survival rate Experimental Group V ([7]; 100 nM): 90.8 ± 2.9 % | survival rate Experimental Group VI ([7]; 1000 nM): 95.0 ± 4.5% | survival rate Experimental Group V ([7]; 1000 nM): 89.5 ± 6.0 %
